The text below walks through data of patent publication US20140005163A1 (NOVARTIS AG, priority 2010, published 2014).

Molecules are shown by their SMILES. Converted amounts (≈) assume the structure as drawn.

Series [1] is described as follows: Solubility in the organic solvents PEG400, propyleneglycol and ethanol. It is filed as physicochemical. The note with it: organic solvent or mixture. The source says:
Compounds of the invention display particularly high solubilities in organic solvents. The compounds of the invention are thus particularly useful for topical administration, e.g. to a mammal such as a human, e.g. to the skin of said mammal. The compounds are thus useful for formulation into compositions suitable for topical administration. Compounds displaying high solubility thus provide an advantage for topical administration over compounds having a lower solubility.
The solubility of certain compounds was determined in the organic solvents PEG400, propyleneglycol and ethanol.

Series [2] in a line: Cellular CaCo2 permeability assay from apical to basal (A-B). It is filed as in vitro ADME. The settings on record: human, Caco-2, read-out: Pe A-B (permeability). The source says: The permeability in 10^−6 cm/s of compounds of formula (I) have been confirmed for selected example using a cellular CaCo2 permeability assay from apical to basal (A-B): […]
For orientation: Passage across Caco-2 layers is used to estimate intestinal permeability.

Series [3] is described as follows: In vivo penetration into dermis of topically treated pigs (skin PK). The settings on record: pig dermis in vivo, topical 0.5% in PG/EtOH 7:3; mean ± SEM, n=8. The protocol:
Small skin areas (4 cm^2) on the dorsolateral back of young domestic pigs were treated topically with 0.5% solutions at different time intervals (1-8 hrs) prior to drug level determination. Skin flaps with the treated sites in the centre were dissected and removed. The skin flaps were spread, and heated metal blocks placed on the test sites for 1 minute to induce separation of epidermis from the dermis. After removal of the loosened epidermal sheets, 1 mm thick dermal sheets were prepared from the treated, de-epidermized skin with a dermatome. From these sheets 6 mm punch samples (6 mm Ø) were collected and analysed for test compound concentration by LC/MS. The procedure described was done with careful avoidance of contamination of the dermal samples with compound attached superficially to the epidermis.
AUC means area under the curve, and is a well known term in clinical pharmacology. The AUC value describes the total uptake of the agent in a time interval.

Series [4] in a line: In vitro skin penetration and permeation, pig skin in static Franz-type diffusion cells. It is filed as in vitro ADME. The note with it: 0.5% solution in propylene glycol, 48 hours exposure, mean ± SD of triplicate; for Skin concentration: after removal of stratum corneum; for Permeation rate: receiver. The protocol:
The skin penetration/permeation properties of two representative compounds of the present invention were tested as follows:
The compounds were applied as 0.5% solutions in propylene glycol to pig skin mounted in static Franz-type diffusion cells. At the end of a 48 hours exposure time, drug concentrations were measured in the skin (after removal of stratum corneum) and in the receiver.

Setting [5] is: absolute ethanol, excipient Ethanol abs.
Where [6] appears, read: propylene glycol, excipient Propyleneglycol.

The solubility is the concentration that dissolves in the medium under given conditions. Take `Cc1nn(C(C)C)cc1-n1c(=O)n(C)c2cnc3ccc(-c4ccc(N(C)C)nc4)cc3c21` [Example 4.1, 8-(6-Dimethylamino-pyridin-3-yl)-1-(1-isopropyl-3-methyl-1H-pyrazol-4-yl)-3-methyl-1,3-dihydro-imidazo[4,5-c]quinolin-2-one]: the figures for the solubility in series [1] (setting [5]), in series [1] (excipient PEG400) and in series [1] (setting [6]) were 4.11 mg/mL (≈ 9.31 mM), over 20 mg/mL and over 20 mg/mL, respectively. In series [2], the Papp A→B was 35.1 ×10⁻⁶ cm/s.

For the molecule `COCc1ncc(-c2ccc3ncc4c(c3c2)n(-c2cn(C)nc2C)c(=O)n4C)cc1OC(C)C` [Example 191.1, 1-(1,3-Dimethyl-1H-pyrazol-4-yl)-8-(5-isopropoxy-6-methoxymethyl-pyridin-3-yl)-3-methyl-1,3-dihydro-imidazo[4,5-c]quinolin-2-one], the figures for the solubility in series [1] (setting [5]), in series [1] (excipient PEG400) and in series [1] (setting [6]) were over 24 mg/mL, over 23 mg/mL and over 19 mg/mL, respectively.

For `CCn1cc(-n2c(=O)n(C)c3cnc4ccc(-c5ccc(NC)nc5)cc4c32)c(C)n1` [Example 118.4, 1-(1-Ethyl-3-methyl-1H-pyrazol-4-yl)-3-methyl-8-(6-methylamino-pyridin-3-yl)-1,3-dihydro-imidazo[4,5-c]quinolin-2-one], in series [2], the Papp A→B turned out to be 15.9 ×10⁻⁶ cm/s.

`COc1ccc(-c2ccc3ncc4c(c3c2)n(-c2cn(C)nc2C)c(=O)n4C)cc1OC` [Example 1.8, 8-(3,4-Dimethoxy-phenyl)-1-(1,3-dimethyl-1H-pyrazol-4-yl)-3-methyl-1,3-dihydro-imidazo[4,5-c]quinolin-2-one]: in series [2], the Papp A→B turned out to be 28.6 ×10⁻⁶ cm/s.

For `Cc1ncc(-c2ccc3ncc4c(c3c2)n(-c2cn(C)nc2C)c(=O)n4C)cc1OC(C)C` [Example 84.1, 1-(1,3-Dimethyl-1H-pyrazol-4-yl)-8-(5-isopropoxy-6-methyl-pyridin-3-yl)-3-methyl-1,3-dihydro-imidazo[4,5-c]quinolin-2-one], the solubility in series [1] (setting [5]) is over 21 mg/mL; in series [1] (excipient PEG400) it was over 19 mg/mL; in series [1] (setting [6]), over 20 mg/mL. Further, the Papp A→B in series [2] worked out at 26.7 ×10⁻⁶ cm/s. Further, in series [3], the “AUC (0-8 h) in dermis” value came to 2.8 ± 1.0 µg·h/g. In series [4], this molecule came in with a Skin concentration of 6.4 ± 3.5 µg/g. In series [4], this molecule came in with a Permeation rate of under 0.4 ng/cm^2/hr.

Turning to `COc1ccc(-c2ccc3ncc4[nH]c(=O)n(-c5cn(C)nc5C)c4c3n2)cc1OC` [Example 249, 8-(3,4-dimethoxy-phenyl)-1-(1,3-dimethyl-1H-pyrazol-4-yl)-1,3-dihydro-1,3,5,9-tetraaza-cyclopenta[a]naphthalen-2-one], in series [2], the Papp A→B is 22.1 ×10⁻⁶ cm/s.

Consider `CCOc1cc(-c2ccc3ncc4c(c3c2)n(-c2cn(CC)nc2C)c(=O)n4C)ccc1OC` [Example 28.1, 8-(3-Ethoxy-4-methoxy-phenyl)-1-(1-ethyl-3-methyl-1H-pyrazol-4-yl)-3-methyl-1,3-dihydro-imidazo[4,5-c]quinolin-2-one], for which, in series [2], the Papp A→B amounted to 18.4 ×10⁻⁶ cm/s.

As for `Cc1nn(C)cc1-n1c(=O)n(C)c2cnc3ccc(-c4cncc(OC(C)C)c4)cc3c21` [Example 58.1, 1-(1,3-Dimethyl-1H-pyrazol-4-yl)-8-(5-isopropoxy-pyridin-3-yl)-3-methyl-1,3-dihydro-imidazo[4,5-c]quinolin-2-one], the solubility in series [1] (setting [5]) was over 22 mg/mL; in series [1] (excipient PEG400) it was over 26 mg/mL; in series [1] (setting [6]), over 24 mg/mL. Moreover, in series [2], the Papp A→B is 30.5 ×10⁻⁶ cm/s. Moreover, in series [3], the “AUC (0-8 h) in dermis” value is 3.7 ± 1.3 µg·h/g. This molecule returned a Skin concentration in series [4] of 9.3 ± 6.2 µg/g. Moreover, the Permeation rate in series [4] was 0.5 ± 0.3 ng/cm^2/hr.

For the molecule `CCn1cc(-n2c(=O)n(C)c3cnc4ccc(-c5cnc(N(C)C)nc5)cc4c32)c(C)n1` [Example 6.4, 8-(2-Dimethylamino-pyrimidin-5-yl)-1-(1-ethyl-3-methyl-1H-pyrazol-4-yl)-3-methyl-1,3-dihydro-imidazo[4,5-c]quinolin-2-one], in series [2], the Papp A→B was determined as 29.7 ×10⁻⁶ cm/s.

Turning to `CCOc1ccc(-c2ccc3ncc4c(c3c2)n(-c2cn(CC)nc2C)c(=O)n4C)cn1` [Example 3.5, 8-(6-Ethoxy-pyridin-3-yl)-1-(1-ethyl-3-methyl-1H-pyrazol-4-yl)-3-methyl-1,3-dihydro-imidazo[4,5-c]quinolin-2-one], in series [2], the Papp A→B was found to be 31.2 ×10⁻⁶ cm/s.

For `Cc1ncc(-c2ccc3ncc4c(c3c2)n(-c2cn(C)nc2C)c(=O)n4C)cc1OC(CF)CF` [Example 189, 1-(1,3-Dimethyl-1H-pyrazol-4-yl)-8-[5-(2-fluoro-1-fluoromethyl-ethoxy)-6-methyl-pyridin-3-yl]-3-methyl-1,3-dihydro-imidazo[4,5-c]quinolin-2-one], the Papp A→B in series [2] worked out at 26.1 ×10⁻⁶ cm/s.

For `Cc1nn(C)cc1-n1c(=O)n(C)c2cnc3ccc(-c4ccc(CO)nc4)cc3c21` [Example 16.2, 1-(1,3-Dimethyl-1H-pyrazol-4-yl)-8-(6-hydroxymethyl-pyridin-3-yl)-3-methyl-1,3-dihydro-imidazo[4,5-c]quinolin-2-one], the Papp A→B in series [2] turned out to be 5.6 ×10⁻⁶ cm/s.
